Measured values: ChEMBL document CHEMBL5214990, “Novel Aryl Alkamidazole Derivatives as Multifunctional Antifungal Inhibitors: Design, Synthesis, and Biological Evaluation” (J Med Chem, 2022)
Values after ≈ are worked out from the molar mass of the structure shown. Active and inactive are the calls of the source. The rule behind the calls is not given here.

How the values were obtained:
Candida albicans [1] = assay: Antifungal activity against fluconazole-resistant Candida albicans 901 assessed as inhibition of fungal growth measured after 72 hrs by CLSI based liquid medium dilution method; format: functional
[2] = target: T1, Lanosterol 14-alpha demethylase (Candida albicans (strain SC5314 / ATCC MYA-2876) (Yeast), UniProt P10613); assay: Inhibition of CYP51 in Candida albicans ATCC SC5314 assessed as ergosterol content at 4 ug/ml measured after 48 hrs by GC-MS analysis (reference value: 95.61%); parameters: scale not given: the % may be the effect or the level left; conditions: at 4 µg/mL
[3] = target: T1, Lanosterol 14-alpha demethylase; assay: Inhibition of CYP51 in Candida albicans ATCC SC5314 assessed as eburicol content at 4 ug/ml measured after 48 hrs by GC-MS analysis (reference value: 1.84%); parameters: scale not given: the % may be the effect or the level left; conditions: at 4 µg/mL
[4] = target: T1, Lanosterol 14-alpha demethylase; assay: Inhibition of CYP51 in Candida albicans ATCC SC5314 assessed as reduction in substrate consumption using lanosterol as substrate preincubated for 30 mins followed by substrate addition and measured after 60 mins by HPLC analysis
Candida albicans [5] = assay: Antifungal activity against Candida albicans infected in mouse assessed as reduction in fungal proliferation in the infection region at 20 mg/kg, ip administered on days 2,4,6,8,10,12 and measured on day 14 by hematoxylin-eosin staining based analysis; format: functional, organism-based; conditions: time 13.0 day
Candida albicans [6] = assay: Antifungal activity against Candida albicans infected in mouse assessed as reduction in necrotic cell fragments in intercellular spaces of the infection region at 20 mg/kg, ip administered on days 2,4,6,8,10,12 and measured on day 14 by GMS staining based analysis; format: functional, organism-based; conditions: time 13.0 day
Mus musculus [7] = assay: Anti-inflammatory activity in mouse infected with Candida albicans assessed as reduction in NLRP3 expression in infection tissues at 20 mg/kg, ip administered on days 2,4,6,8,10,12 and measured on day 14 by western blot analysis; format: functional, organism-based; conditions: time 13.0 day
Mus musculus [8] = assay: Anti-inflammatory activity in mouse infected with Candida albicans assessed as reduction in NF-kappaB p65 expression in spleen at 20 mg/kg, ip administered on days 2,4,6,8,10,12 and measured on day 14 by immunohistochemical analysis; format: functional, organism-based; conditions: time 13.0 day
[9] = Renal toxicity in mouse infected with Candida albicans assessed as blood urea nitrogen level at 20 mg/kg, ip administered on days 2,4,6,8,10,12 and measured on day 14 (reference value: 16.2 +/-1.6 mmol/L); format: organism-based; conditions: in vivo, 312 h, time 13 day
Candida albicans [10] = assay: Antifungal activity against Candida albicans infected in mouse assessed as reduction in necrotic cell fragments in intercellular spaces of the infection region at 20 mg/kg, ip administered on days 2,4,6,8,10,12 and measured on day 14 by hematoxyin-eosin staining based analysis; format: functional, organism-based; conditions: time 13.0 day
Mus musculus [11] = assay: Anti-inflammatory activity in mouse infected with Candida albicans assessed as reduction in COX-2 expression in spleen at 20 mg/kg, ip administered on days 2,4,6,8,10,12 and measured on day 14 by immunohistochemical analysis; format: functional, organism-based; conditions: time 13.0 day
Candida tropicalis = assay: Antifungal activity against Candida tropicalis ATCC 1369 assessed as inhibition of fungal growth measured after 72 hrs by CLSI based liquid medium dilution method; format: functional
Mus musculus [12] = assay: Anti-inflammatory activity in mouse infected with Candida albicans assessed as reduction in NF-kappaB p65 expression in infection tissues at 20 mg/kg, ip administered on days 2,4,6,8,10,12 and measured on day 14 by western blot analysis; format: functional, organism-based; conditions: time 13.0 day
Candida albicans [13] = assay: Antifungal activity against fluconazole-resistant Candida albicans 904 assessed as inhibition of fungal growth measured after 72 hrs by CLSI based liquid medium dilution method; format: functional
Candida albicans [14] = assay: Induction of apoptosis in Candida albicans assessed as late apoptotic cells measured after 24 hrs by Annexin V-FITC/PI staining based flow cytometry (reference value: 0.44%); format: functional
Mus musculus [15] = assay: Anti-inflammatory activity in mouse infected with Candida albicans assessed as reduction in COX-2 expression in infection tissues at 20 mg/kg, ip administered on days 2,4,6,8,10,12 and measured on day 14 by western blot analysis; format: functional, organism-based; conditions: time 13.0 day
Candida albicans [16] = assay: Antifungal activity against Candida albicans infected in mouse assessed as reduction in fungal endogenous infection symptoms at 20 mg/kg, ip administered on days 2,4,6,8,10,12 and measured on day 14 by GMS staining based analysis; format: functional, organism-based; conditions: time 13.0 day
[17] = target: T1, Lanosterol 14-alpha demethylase; assay: Inhibition of CYP51 in Candida albicans ATCC SC5314 assessed as unknown sterol content at 4 ug/ml measured after 48 hrs by GC-MS analysis; parameters: scale not given: the % may be the effect or the level left; conditions: at 4 µg/mL
Mus musculus [18] = assay: Anti-inflammatory activity in mouse infected with Candida albicans assessed as reduction in PD-L1 expression in spleen at 20 mg/kg, ip administered on days 2,4,6,8,10,12 and measured on day 14 by immunohistochemical analysis; format: functional, organism-based; conditions: time 13.0 day
Candida albicans [19] = assay: Induction of apoptosis in Candida albicans assessed as early apoptotic cells measured after 24 hrs by Annexin V-FITC/PI staining based flow cytometry (reference value: 0.46%); format: functional
Candida albicans [20] = assay: Antifungal activity against Candida albicans infected in mouse assessed as reduction in fungal endogenous infection symptoms at 20 mg/kg, ip administered on days 2,4,6,8,10,12 and measured on day 14 by hematoxylin-eosin staining based analysis; format: functional, organism-based; conditions: time 13.0 day
[21] = Hepatotoxicity in mouse infected with Candida albicans assessed as plasma ALT level at 20 mg/kg, ip administered on days 2,4,6,8,10,12 and measured on day 14 (reference value: 33.5 +/-3.4 IU/L); format: toxicity, organism-based; conditions: in vivo, 312 h, time 13 day
[22] = Hepatotoxicity in mouse infected with Candida albicans assessed as plasma AST level at 20 mg/kg, ip administered on days 2,4,6,8,10,12 and measured on day 14 (reference value: 53.4 +/-6.8 IU/L); format: toxicity, organism-based; conditions: in vivo, 312 h, time 13 day
Candida albicans [23] = assay: Antifungal activity against Candida albicans infected in mouse assessed as increase in animal's body weight at 20 mg/kg, ip administered on days 2,4,6,8,10,12 and measured on day 14; format: functional, organism-based; conditions: time 13.0 day
Candida albicans [24] = assay: Antifungal activity against fluconazole-resistant Candida albicans 632 assessed as inhibition of fungal growth measured after 72 hrs by CLSI based liquid medium dilution method; format: functional
Candida albicans [25] = assay: Induction of apoptosis in Candida albicans assessed as necrotic cells measured after 24 hrs by Annexin V-FITC/PI staining based flow cytometry (reference value: 3.37%); format: functional
Candida albicans [26] = assay: Antifungal activity against fluconazole-resistant Candida albicans 17# assessed as inhibition of fungal growth measured after 72 hrs by CLSI based liquid medium dilution method; format: functional
Cryptococcus neoformans = assay: Antifungal activity against Cryptococcus neoformans assessed as inhibition of fungal growth measured after 72 hrs by CLSI based liquid medium dilution method; format: functional
Candida albicans [27] = assay: Antifungal activity against Candida albicans assessed as inhibition of fungal cell proliferation by measuring decrease in fungal cell density measured after 24 hrs; format: functional, organism-based
Candida albicans [28] = assay: Antifungal activity against Candida albicans infected in mouse assessed as disappearance of nuclear aggregation in the infection region at 20 mg/kg, ip administered on days 2,4,6,8,10,12 and measured on day 14 by hematoxyin-eosin staining based analysis; format: functional, organism-based; conditions: time 13.0 day
Candida albicans [29] = assay: Induction of mitochondrial membrane depolarization in Candida albicans assessed as fungal cells with intact mitochondria measured after 24 hrs by JC-1 staining based flow cytometry (reference value: 95.9%); format: functional

T1 sequence (P10613 whole entry): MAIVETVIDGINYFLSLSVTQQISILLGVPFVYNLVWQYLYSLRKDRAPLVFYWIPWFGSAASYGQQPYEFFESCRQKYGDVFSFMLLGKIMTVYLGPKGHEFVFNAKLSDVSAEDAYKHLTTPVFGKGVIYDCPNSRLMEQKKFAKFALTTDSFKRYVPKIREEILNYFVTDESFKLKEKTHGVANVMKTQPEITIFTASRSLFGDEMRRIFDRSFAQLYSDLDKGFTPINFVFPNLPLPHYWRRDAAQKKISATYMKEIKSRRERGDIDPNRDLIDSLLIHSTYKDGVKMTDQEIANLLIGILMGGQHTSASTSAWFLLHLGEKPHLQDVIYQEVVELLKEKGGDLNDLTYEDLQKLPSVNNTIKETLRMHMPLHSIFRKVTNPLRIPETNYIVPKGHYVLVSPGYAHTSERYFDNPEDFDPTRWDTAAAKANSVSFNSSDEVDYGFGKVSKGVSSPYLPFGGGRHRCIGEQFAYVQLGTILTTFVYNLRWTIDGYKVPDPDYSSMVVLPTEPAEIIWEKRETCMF

Compound | MIC50 (Candida albicans [1]) | Activity [2] | Activity [3] | IC50 [4] | Activity (Candida albicans [5]) | Activity (Candida albicans [6]) | Activity (Mus musculus [7]) | Activity (Mus musculus [8]) | Activity [9] | Activity (Candida albicans [10]) | Activity (Mus musculus [11]) | MIC50 (Candida tropicalis) | Activity (Mus musculus [12]) | MIC50 (Candida albicans [13]) | Activity (Candida albicans [14]) | Activity (Mus musculus [15]) | Activity (Candida albicans [16]) | Activity [17] | Activity (Mus musculus [18]) | Activity (Candida albicans [19]) | also measured
OC(Cn1cncn1)(Cn1cncn1)c1ccc(F)cc1F [FLUCONAZOLE] | > 8 µg/mL | 20.57% | 40.17% | 110 nM | Active | Active | Active | Active | 24.4 mmol/L | Active | Active | 0.5 µg/mL (≈ 1.63 µM) | Active | > 8 µg/mL | 5.96% | Active | Active | 4.09% | Active | 12.3% | Activity (Candida albicans [20]): Active; Activity [21]: 46.1 IU/L; Activity [22]: 80.5 IU/L; Activity (Candida albicans [23]): Active; MIC50 (Candida albicans [24]): > 8 µg/mL; Activity (Candida albicans [25]): 13%; MIC50 (Candida albicans [26]): > 8 µg/mL; MIC50 (Cryptococcus neoformans): 0.5 µg/mL (≈ 1.63 µM); Activity (Candida albicans [27]): Active; Activity (Candida albicans [28]): Active; Activity (Candida albicans [29]): 60.8%
C[C@H](C(=O)N(C)CC(O)(Cn1ccnc1)c1ccc(Cl)cc1)c1ccc(-c2ccccc2)c(F)c1 (stereo partly drawn) | 0.5 µg/mL (≈ 1.02 µM) | 13.51% | 43.28% | 190 nM | Active | Active | Active | Active | 20.5 mmol/L | Active | Active | 0.25 µg/mL (≈ 0.508 µM) | Active | 2 µg/mL (≈ 4.07 µM) | 19.4% | Active | Active | 3.47% | Active | 1.8% | Activity (Candida albicans [20]): Active; Activity [21]: 42.4 IU/L; Activity [22]: 69.5 IU/L; Activity (Candida albicans [23]): Active; MIC50 (Candida albicans [24]): 4 µg/mL (≈ 8.13 µM); Activity (Candida albicans [25]): 34.3%; MIC50 (Candida albicans [26]): 2 µg/mL (≈ 4.07 µM); MIC50 (Cryptococcus neoformans): 0.5 µg/mL (≈ 1.02 µM); Activity (Candida albicans [27]): Active; Activity (Candida albicans [28]): Active; Activity (Candida albicans [29]): 32.6%
C[C@H](C(=O)N(C)CC(O)(Cn1ccnc1)c1ccc(Cl)cc1Cl)c1cccc(C(=O)c2ccccc2)c1 (stereo partly drawn) | 0.5 µg/mL (≈ 0.932 µM) | 7.95% | 50.87% | 160 nM | Active | Active | Active | Active | 17 mmol/L | Active | Active | 0.25 µg/mL (≈ 0.466 µM) | Active | 1 µg/mL (≈ 1.86 µM) | 28.1% | Active | Active | 2.61% | Active | 2.13% | Activity (Candida albicans [20]): Active; Activity [21]: 43.2 IU/L; Activity [22]: 66.5 IU/L; Activity (Candida albicans [23]): Active; MIC50 (Candida albicans [24]): 2 µg/mL (≈ 3.73 µM); Activity (Candida albicans [25]): 26%; MIC50 (Candida albicans [26]): 2 µg/mL (≈ 3.73 µM); MIC50 (Cryptococcus neoformans): 0.25 µg/mL (≈ 0.466 µM); Activity (Candida albicans [27]): Active; Activity (Candida albicans [28]): Active; Activity (Candida albicans [29]): 53.1%
